This is an account of results in patent US10093675B2, “6,8-disubstituted-9-(heterocyclyl)purines, compositions containing these derivatives and their use in cosmetic and medicinal applications” (USTAV EXPERIMENTALNI BOTANIKY AV CR, V.V.I., priority 2014, dated 2018).

Structures are written as SMILES. pIC50: −log10 of the molar value. Like-named read-outs stand apart in the source and are kept apart here.

The test system of data set [1] is cytokinin-dependent tobacco callus Nicotiana tabacum L. cv. Wisconsin 38. Kind of data set: Plant cell division: growth of cytokinin-dependent tobacco callus. The data set is classed as cell-based. The settings on record: for Activity (%); (s.d.): relative activity at concentration with highest activity, 10^−6 M kinetin set at 100%; for Concentration with highest activity (mol/l): tobacco callus fresh weight increase after four weeks, tested 10^−8 M to 10^−4 M.

For data set [2], the system named is normal diploid fibroblasts BJ. Briefly: In vitro cytotoxic activity (Calcein AM), BJ. The data set is classed as cell-based, human. Particulars: 72 hours, read-out: Cell line tested/IC50 (μmol/L) BJ. The source says:
(§1) Because toxic compounds negatively influence metabolic processes of cells, many standard cytotoxicity assays are based on measurement of metabolisation rate of various artificial substrates. Resulting product is then quantified, for example, by means of spectrometry. The assays can be easily modified for use in 96-well plates. For evaluation of cytotoxicity of the […] of this invention, a microtiter assay based on quantification of metabolisation of Calcein AM was used. The assay is widely used in drug screening programs and in chemosensitivity testing. In live cells, Calcein AM is enzymatically hydrolysed and accumulation of resulting calcein is manifested by green fluorescence.
(§2) The following human cell lines were used for routine screening of the compounds: normal diploid fibroblasts BJ, T-lymphoblastic leukemia cell line CEM, promyelocytic leukemia cell line HL-60, erytroid leukemia cell line K-562, breast carcinoma cell line MCF-7, osteosarcoma cell line HOS and melanoma cell line G-361. The cells were maintained in Nunc/Corning 80 cm^2 plastic tissue culture flasks and cultured in cell culture medium (DMEM with 5 g/l glucose, 2 mM glutamine, 100 U/ml penicillin, 100 mmg/ml streptomycin, 10% fetal calf serum and sodium bicarbonate). The cell suspensions were prepared and diluted according to the particular cell type and the expected target cell density (2.500-30.000 cells per well based on cell growth characteristics) and pipetted (80 μl) into 96-well plates. Inoculates were allowed a pre-incubation period of 24 hours at 37° C. and 5% CO2 for stabilization. Tested compound was added in total volume of 20 μl of water at time zero. Usually, test compound was evaluated at six 3-fold dilutions. In routine testing, the highest concentration tested was 100 μM, but it could have been adjusted because of limited solubility of a compound. All drug concentrations were tested in triplicates.
(§3) Incubations of cells with the test compounds lasted for 72 hours at 37° C., in 5% CO2 atmosphere and 100% humidity. At the end of incubation period Calcein AM in PBS was added into final concentration of 1 μg/ml. After another 1 hour of incubation fluorescence (FD) was measured with the Labsystem FIA Reader Fluoroscan Ascent (UK). Growth inhibition (GI) was estimated using the following equitation: GI=(mean FDdrug exposed wells−mean FDblank)/(mean FDcontrol wells−mean FDblank)×100%. The GI50 value, the drug concentration causing 50% reduction of Calcein AM conversion, was calculated from the obtained dose response curves.

Data set [3] deals with T-lymphoblastic leukemia cell line CEM. Kind of data set: In vitro cytotoxic activity (Calcein AM), CEM. Particulars: 72 hours, read-out: Cell line tested/IC50 (μmol/L) CEM. The data set is classed as cell-based, human.
Description: as §1, §2, §3

The test system of data set [4] is erytroid leukemia cell line K-562. Briefly: In vitro cytotoxic activity (Calcein AM), K-562. It counts as cell-based, human. The settings on record: read-out: Cell line tested/IC50 (μmol/L) K-562.
Description: as §1, §2, §3

In data set [5] the test system is breast carcinoma cell line MCF-7. Kind of data set: In vitro cytotoxic activity (Calcein AM), MCF-7. The data set is classed as cell-based, human. Particulars: read-out: Cell line tested/IC50 (μmol/L) MCF7.
Description: as §1, §2, §3

Data set [6] concerns osteosarcoma cell line HOS. Kind of data set: In vitro cytotoxic activity (Calcein AM), HOS. Particulars: 72 hours, read-out: Cell line tested/IC50 (μmol/L) HOS. It counts as cell-based, human.
Description: as §1, §2, §3

In the next data set the test system is melanoma cell line G-361. Briefly: In vitro cytotoxic activity (Calcein AM), G-361. The data set is classed as cell-based, human. The settings on record: read-out: Cell line tested/IC50 (μmol/L) G-361.
Description: as §1, §2, §3

Data set [7] concerns Human diploid fibroblast BJ. Briefly: In vitro cytotoxic activity (MTT). The data set is classed as cell-based. The settings on record: 72 hours incubation; concentration causing 20% decrease in mitochondrial dehydrogenase activity. The method, then:
MTT (metabolic tetrazolium toxicity) assay is a standard colorimetric assay for evaluation of cytotoxicity. Mitochondrial dehydrogenase activity converts yellow MTT into violet formazan which is measured by means of spectrometry.
Human diploid fibroblast BJ (passage 18-22) were seeded into 96-well plate (5.000 cells per well). After 6 hours cultivation medium (DMEM with 5 g/l glucose, 2 mM glutamine, 100 U/ml penicillin, 100 mmg/ml streptomycin, 10% fetal calf serum and sodium bicarbonate) was replaced with the cultivation medium containing test compounds in concentration range of 0-200 µM. Highest concentration was adjusted if the solubility of the compound was limiting. Every concentration was tested in pentaplicate. MTT was added to the cells after 72 hours incubation (final concentration 0.5 mg/ml) and incubation continued for another 3 hours. MTT was solubilised by DMSO and absorbance at 570 nm was measured. Growth inhibition (GI) was estimated using the following equitation: GI=(mean A drug exposed wells−mean Ablank/mean Acontrol wells−mean Ablank)×100%. The GI20 value, the drug concentration causing 20% decrease in mitochondrial dehydrogenase activity, was calculated from the obtained dose response curves.

Data set [8] deals with Salmonella typhimurium histidien auxotrophs TA98 and TA100. Kind of data set: Ames test. The data set is classed as cell-based. Particulars: 2.5 to 5000 μg/plate; presence and absence of Aroclor-induced rat liver S9. The method in brief:
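Strains TA98 and TA100 exposed to compounds in DMSO at 2.5, 5.0, 15, 50, 500, 1500 and 5000 μg/plate following standard Ames/Maron protocols.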

Consider `CSc1nc2c(NCc3ccco3)ncnc2n1C1CCCO1` (stereo not shown) [Compound 216], for which the “Activity (%); (s.d.)” value in data set [1] is 103 (±4) %. Also, the “Concentration with highest activity (mol/l)” value (“Concentration” below) in data set [1] is 10^−6-10^−4 mol/l. The pIC50 (in data set [2]; in [3]; in data set [4] (72 hours); in data set [5] (72 hours); in data set [6]; in the data set with melanoma cell line G-361 (72 hours)) was less than 4.30 in each case. Besides, the “GI20” value in data set [7] is more than 100 µM. Besides, the mutagenic response result in data set [8] was “no positive mutagenic responses”.
With `COc1nc2c(NCC=C(C)C)ncnc2n1C1CCCCO1` (stereo not shown) [Compound 127, 8-Methoxy-6-(3-methylbut-2-en-1-ylamino)-9-(tetrahydropyran-2-yl)-9H-purine], the “Activity (%); (s.d.)” value in data set [1] is 114 (±6) %. The pIC50 is less than 4.30 in data set [2] (Homo sapiens, Fibroblast); less than 4.30 in data set [3] (Homo sapiens); less than 4.30 in data set [4] (Homo sapiens, K562, 72 hours); less than 4.30 in data set [5] (Homo sapiens, MCF7, 72 hours); less than 4.30 in [6] (Homo sapiens); less than 4.30 in the data set on melanoma cell line G-361 (Homo sapiens, G-361, 72 hours). For the same compound, the “GI20” value in data set [7] was more than 100 µM. The mutagenic response entry in data set [8] is “no positive mutagenic responses”.
Take `COc1nc2c(NCc3cccc(O)c3)ncnc2n1C1CCCCO1` (stereo not shown) [Compound 129]: in data set [1], the “Activity (%); (s.d.)” value is on record as 111 (±4) %. In addition, the “Concentration” value in [1] was 10^−6-10^−5 mol/l. Besides, the pIC50 (in data set [2]; in data set [3]; in data set [4] (72 hours); in data set [5] (72 hours); in data set [6]; in the data set with melanoma cell line G-361 (72 hours)) was less than 4.30 in each case. The “GI20” value in [7] was more than 100 µM. The mutagenic response result in [8] was “no positive mutagenic responses”.
For `COc1nc2c(NC/C=C(\C)CO)ncnc2n1C1CCCCO1` (stereo not shown) [Compound 126, (E)-6-(4-Hydroxy-3-methylbut-2-en-1-ylamino)-8-methoxy-9-(tetrahydropyran-2-yl)-9H-purine], in [1], the “Activity (%); (s.d.)” value is on record as 116 (±6) %. Also, the pIC50 in data set [2] (Homo sapiens, Fibroblast) is less than 4.30; in [3] (Homo sapiens), less than 4.30; in data set [4] (Homo sapiens, K562, 72 hours) it was less than 4.30; in data set [5] (Homo sapiens, MCF7, 72 hours), less than 4.30; in data set [6] (Homo sapiens) it was less than 4.30; in the data set on melanoma cell line G-361 (Homo sapiens, G-361, 72 hours) it was less than 4.30. Moreover, the “GI20” value in [7] is more than 100 µM. Besides, the mutagenic response result in data set [8] is on record as “no positive mutagenic responses”.
Consider `COc1nc2c(NCc3cccc(F)c3)ncnc2n1C1CCCCO1` (stereo not shown) [Compound 130], for which, in [1], the “Activity (%); (s.d.)” value is reported as 108 (±3) %. For the same compound, the “Concentration” value in [1] is 10^−6-10^−4 mol/l. Further, the pIC50 (in [2]; in data set [3]; in [4] (72 hours); in [5] (72 hours); in [6]; in the data set with melanoma cell line G-361 (72 hours)) was less than 4.30 in each case. For the same compound, in data set [7], the “GI20” value was more than 100 µM. Moreover, in data set [8], the mutagenic response result was “no positive mutagenic responses”.
As for `COc1nc2c(NCc3ccccc3)ncnc2n1C1CCCCO1` (stereo not shown) [Compound 125], in [1], the “Activity (%); (s.d.)” value is reported as 104 (±2) %. The “Concentration” value in [1] was 10^−6-10^−4 mol/l. Also, the pIC50 (in [2]; in data set [3]; in data set [4] (72 hours); in data set [5] (72 hours); in data set [6]; in the data set on melanoma cell line G-361 (72 hours)) was less than 4.30 throughout. Moreover, the “GI20” value in [7] is more than 100 µM. In addition, the mutagenic response entry in [8] is “no positive mutagenic responses”.
As to `CSc1nc2c(NC/C=C(\C)CO)ncnc2n1C1CCCCO1` (stereo not shown) [Compound 146], the “Activity (%); (s.d.)” value in data set [1] is 108 (±5) %. Also, in [1], the “Concentration” value is reported as 10^−6-10^−5 mol/l. Also, the pIC50 (in [2]; in [3]; in data set [4] (72 hours); in data set [5] (72 hours); in data set [6]; in the data set on melanoma cell line G-361 (72 hours)) was less than 4.30 throughout. In addition, the “GI20” value in data set [7] was more than 100 µM. The mutagenic response result in [8] is recorded as “no positive mutagenic responses”.
As for `CSc1nc2c(NCC=C(C)C)ncnc2n1C1CCCCO1` (stereo not shown) [Compound 147], the “Activity (%); (s.d.)” value in data set [1] is 112 (±2) %. In addition, the “Concentration” value in data set [1] was 10^−6-10^−4 mol/l. Further, the pIC50 (in [2]; in data set [3]; in data set [4] (72 hours); in [5] (72 hours); in data set [6]; in the data set with melanoma cell line G-361 (72 hours)) was less than 4.30 throughout. For the same compound, the “GI20” value in data set [7] is more than 100 µM. Moreover, the mutagenic response entry in data set [8] is on record as “no positive mutagenic responses”.
In the case of `CSc1nc2c(NCC=C(C)C)ncnc2n1C1CCCO1` (stereo not shown) [Compound 218], the “Activity (%); (s.d.)” value in data set [1] is 113 (±5) %. The “Concentration” value in data set [1] was 10^−6-10^−4 mol/l. Besides, the pIC50 (in [2]; in [3]; in [4] (72 hours); in [5] (72 hours); in data set [6]; with melanoma cell line G-361 (72 hours)) was less than 4.30 throughout. For the same compound, the “GI20” value in data set [7] was more than 100 µM. In addition, the mutagenic response entry in [8] was “no positive mutagenic responses”.
